Non-standard residues stand in square brackets, D forms with d. Residues, ends and D or L forms follow the SMILES beside them. *: point of attachment. Bn = c1ccc(C*)cc1
Assays:
[1] = test system: tryptophan uptake; test: Tryptophan uptake inhibition (tryptophan uptake method)
Description: Each of the resultant 10 fractions is assayed according to the tryptophan uptake method described in Biological Psychiatry, Vol. 7, No. 1, p. 53, (1973) as an indication of the amount of anti-S protein factor therein.
Tryptophan uptake are also conducted for the tested polypeptides. The tryptophan uptake inhibition is determined at 10 minutes.

[2] = test system: alpha-helical S-protein; test: Intracranial self-stimulation (bar pressing) in rats given alpha-helical S-protein; assay type: in vivo; conditions: for Bar Presses Restoration %: alpha-helical S-protein intercisternally, polypeptide 0.2 mg/kg intramuscularly
[3] = test system: S-protein of schizophrenics; test: Conversion of alpha-helical S-protein to random chain conformation; assay type: biochemical, human
[4] = Activity useful for alleviating the symptoms of schizophrenia (test not specified)
Description: Following essentially the same procedures as described above, N-acetyl-tyrosylthreonylvalylleucine, prolylthreonylvalylleucylprolylglycine are tested to determine their effect on rats which have been administered the alpha-helical S-protein.

Row | Compound | Tryptophan Uptake Inhibition % ([1]; determined at 10 minutes) [%] | Bar Presses Restoration % ([2]; rats) | other results
1 | CC(C)C[C@H](NC(=O)[C@@H](NC(=O)[C@@H](NC(=O)[C@@H](C)N)[C@@H](C)O)C(C)C)C(=O)O [D-Alanyl-L-threonyl-L-valyl-L-leucine] (H-[dA]TVL-OH) | 15 | – | duration of tryptophan uptake inhibition (in words) ([1]; 10, 15 and 30 minutes): after a period of time the inhibition of tryptophan uptake may be diminished; Tryptophan Uptake Inhibition % ([1]; 15 min.): 16%; Tryptophan Uptake Inhibition % ([1]; 30 min.): 0%
2 | NCC(=O)NCC(=O)NCC(=O)O [Glycylglycylglycine, reference compound] (H-Gly-Gly-Gly-OH) | 0 | 3% | –
3 | CC(C)C[C@H](NC(=O)[C@@H](NC(=O)[C@@H](NC(=O)CN)[C@@H](C)O)C(C)C)C(=O)O [Glycylthreonylvalylleucine] (H-GTVL-OH) | 24.3 | 100% | –
4 | CC(C)C[C@@H](NC(=O)[C@@H](NC(=O)[C@@H](N)[C@@H](C)O)C(C)C)C(=O)O [L-Threonyl-L-valyl-D-leucine] (H-Thr-Val-[dL]-OH) | 12 | – | Tryptophan Uptake Inhibition % ([1]; 15 min.): 18%; Tryptophan Uptake Inhibition % ([1]; 30 min.): 21%
5 | CC(C)C[C@H](NC(=O)[C@@H](NC(=O)[C@@H](N)[C@@H](C)O)C(C)C)C(=O)N[C@H](C)C(=O)O [L-Threonyl-L-valyl-L-leucyl-D-alanine] (H-TVL[dA]-OH) | 2 | – | tryptophan uptake activity (in words) [1]: without significant tryptophan uptake activity
6 | CC(=O)N[C@H](C(=O)N[C@H](C(=O)N[C@@H](CC(C)C)C(N)=O)C(C)C)[C@@H](C)O [N-Acetyl-threonylvalylleucinamide] (Ac-Thr-Val-Leu-NH2) | 56.5 | 100% | –
7 | CC(=O)N[C@H](C(=O)N[C@H](C(=O)N[C@@H](CC(C)C)C(=O)O)C(C)C)[C@@H](C)O [N-Acetyl-threonylvalylleucine] (Ac-Thr-Val-Leu-OH) | 20.2 | 100% | –
8 | CC(C)C[C@H](NC(=O)[C@@H](NC(=O)[C@@H](N)[C@@H](C)OCc1ccccc1)C(C)C)C(N)=O [O-Benzyl-threonylvalylleucinamide] (H-Thr(Bn)-Val-Leu-NH2) | 0 | toxic | –
9 | CC(C)C[C@H](NC(=O)[C@@H](NC(=O)[C@@H](NC(=O)[C@@H]1CCCN1C(=O)[C@@H](N)Cc1ccccc1)[C@@H](C)O)C(C)C)C(=O)N1CCC[C@H]1C(=O)N[C@@H](Cc1ccccc1)C(=O)O [Phenylalanylprolylthreonylvallylleucylprolyl phenylalanine] (H-FPTVLPF-OH) | 39.5 | 100% | –
10 | CC(C)C[C@H](NC(=O)[C@@H](NC(=O)[C@@H](NC(=O)[C@@H]1CCCN1)[C@@H](C)O)C(C)C)C(=O)N1CCC[C@H]1C(=O)NCC(=O)O [Prolylthreonylvalylleucylprolylgylcine] (H-PTVLPG-OH) | 44.2 | – | restoration of the bar pressing activity of the rats (in words) ([2]; rats administered the alpha-helical S-protein): restores the bar pressing activity of the rats
11 | CC[C@H](C)[C@H](NC(=O)[C@@H](NC(=O)[C@@H](N)[C@@H](C)O)C(C)C)C(=O)O [Threonylvalylisoleucine] (H-Thr-Val-Ile-OH) | 5.6 | 41% | –
12 | CC(C)C[C@H](NC(=O)[C@@H](NC(=O)[C@@H](N)[C@@H](C)O)C(C)C)C(N)=O [Threonylvalylleucinamide] (H-Thr-Val-Leu-NH2) | 21.6 | 90% | –
13 | CC(C)C[C@H](NC(=O)[C@@H](NC(=O)[C@@H](N)[C@@H](C)O)C(C)C)C(=O)O [Threonylvalylleucine] (H-Thr-Val-Leu-OH) | 19.8 | 85% | period of effectiveness in counteracting the effect of the S-protein ([2]; rats): of short duration; activity against the S-protein of schizophrenics (conformation change, in words) [3]: the alpha-helical conformation of the S-protein is converted to the random form
14 | CC(C)C[C@H](NC(=O)[C@@H](NC(=O)[C@@H](N)[C@@H](C)O)C(C)C)C(=O)N[C@@H](CCCNC(=N)N)C(=O)O [threonylvalylleucylarginine] (H-TVLR-OH) | – | – | activity useful for alleviating the symptoms of schizophrenia (in words) [4]: exhibiting activity useful for alleviating the symptoms of schizophrenia
15 | N-α-Acetyl-Threonylvalyleucine, methyl ester | 24.2 | – | –

— patent publication US4146614A, “Threonyl-valyline leucine containing peptides and pharmaceutical compositions” (State of Michigan, priority 1977, dated 1979)
